# Measured values: US6528685B2 (Teva Pharmaceutical Industries, Ltd., priority 1994, dated 2003)
# Assays:
# [1] = tested on: hypoxic rat; assay: Passive avoidance test in hypoxic rat, Experiment 3A; format: in vivo; conditions: hypoxic rats
# Procedure: Wistar male rats, 15-19 month-old, were exposed to a single hypoxic episode as described above. […] The passive avoidance test was performed on day 13 after initiation the drug treatment. The apparatus consisted of a lit chamber that can be separated from a dark chamber by a sliding door. At training, a rat is placed in the lit chamber for 30 seconds, then the door is opened. The rat moves to the dark chamber after a short delay—the latency, that is recorded. Upon entry into the dark chamber, the door is shut closed and a 0.3-mA footshock is delivered for 3 seconds by a Grass S-88 stimulator. Retention of the experience is determined after 48 hours by repeating the test and recording the latency to an arbitrary maximum of 300 seconds. Longer latencies are ascribed to retention of memory and improved cognition.
# [2] = tested on: hypoxic rat; assay: α-MpT-induced hypokinesia in hypoxic rat, Experiment 1A; format: in vivo; conditions: for Locomotor activity after α-MpT treatment, recorded as total movements / Locomotor activity after αMpT treatment, recorded as big movements: hypoxic rats, 0.5 mg/kg/day by gavage 70-80 days; for Locomotor activity after αMpT treatment, recorded as big movements: Mean ± SEM
# Procedure: (§1) Wistar male rats, 15-19 month-old, were exposed to a single hypoxic episode which is assumed to decrease the level of dopamine in the brain. […] The drugs were administered by gavage, using a special syringe equipped with rounded tip that could be directed into the stomach. The dose was contained in 0.3-0.5 mL of distilled water. The rats were pretreated for 70-80 days with daily doses of the test drugs and received intra-peritoneal (i.p.) α-MpT (α-methyl-p-tyrosine) at a dose of 100 mg/kg in 0.3-0.5 mL saline. Controls received saline. α-MpT is assumed to inhibit the formation of L-Dopa from tyrosine and, consequently the formation of dopamine itself. Lack of central dopamine is expressed as hypokinesia. Following the injection of α-MpT, motor activity was recorded for the duration of 10 hours. Locomotion scores were taken in seven fully-computerized cages (26×25 cm) having a grid of infra-red beams at 4 cm-intervals.
# (§2) Crossing of a beam initiated an electric signal which was fed into a computer. The number of crossings over a given period provided a measure of locomotion.
# (§3) The records gave two data categories: (a) “small movements” originating in stationary activities such as grooming and scratching and (b) “big movements” originating in ambulation and recorded as the simultaneous crossing of more than two beams. “Total movements” include both categories.
# (§4) Counts of motor activity in the presence of α-MpT were related as percent with respect to counts in its absence in the corresponding control group (unlesioned or hypoxia-lesioned). Motor activity counts of drug-treated rats were related to the hypoxia saline-treated as 100%. All behavioral tests were performed 90-120 min. after administration of the last dose of the test compound.
# [3] = tested on: hypoxic rat; assay: α-MpT-induced hypokinesia in hypoxic rat, Experiment 1B; format: in vivo; conditions: hypoxic rats, 0.3 mg/Kg daily i.p. 21 days; for Locomotor activity after α-MpT treatment, recorded as big movements: Mean ± SEM
# Procedure: as §1, §2, §3, §4
# The procedure of Experiment 1A was repeated with the following changes:
# (1) Animal: 11-14 month-old rats.
# The drugs were given i.p.
# (3) Duration of the treatment: 21 days.
# (4) Dose of α-MpT: 70 mg/Kg.
# [4] = tested on: hypoxia-lesioned rats; assay: Water maze working memory test, Experiment 3B; format: in vivo, rat; conditions: hypoxia-lesioned rats; 0.5 mg/kg/day 60 days; ± SEM
# Source text: The apparatus used consists of a circular water tank 160 cm in diameter filled with water to a depth of 38 cm. The water was made cloudy by the addition of milk powder. A clear Plexiglass 15 cm platform, supported by a movable stand rest on the bottom of the tank was submerged to a depth of 2 cm from the water surface. Normally a swimming rat cannot perceive the location of the platform but it may recall it from a previous experience and training, unless it suffers from some memory impairment. The time taken to locate the platform is measured in seconds and referred to as the latency. During the experiment all orientational cues such as ceiling lights etc. remained unchanged. Longer latencies are observed with rats with some impairment to their memory.
# Each rat was given two trails a day for four days, entering the pool from the same point of entry each day. The position of the platform was changed daily to one of four predetermined positions. Each rat was tested twice each day over the four days, referred to as runs 1 and 2 on sessions I-IV. Initially the rat was placed on the platform for 60 seconds. It was then removed and placed at the point of entry and allowed a maximum of 120 seconds to locate the platform (run 1). The second run for that day followed 60 seconds later (run 2). In the second run the rat is expected to find the platform much sooner, having benefitted from its earlier experience. […] The average latency of run 1 in four sessions on four different days was then related to the corresponding parameter of run 2. The smaller the ratio of […], the better the short range learning score.
# Table 8. […] The data are the latencies in seconds±SEM that it took a given group to locate a submerged and invisible platform the location of which was shifted from one session to the other. The time interval between sessions was one day, and that between successive runs was 60 seconds. (n=7-8 rats per group)
# [5] = tested on: hypoxic rat; assay: Amphetamine-induced stereotype behavior in hypoxic rat, Experiment 2A; format: in vivo; conditions: hypoxic group, with respect to hypoxia and amphetamine control
# Procedure: Wistar male rats, 15-19 month-old, were exposed to a single hypoxic episode as described above. […] Rats pretreated for 29 days with daily doses of the test drugs (0.5 mg/kg), received a sub-cutaneous (s.c.) injection of D-amphetamine sulfate at a dose of 0.5 mg/kg. D-amphetamine is known to cause an enhancement of the effects of CNS dopamine by a mechanism involving dopamine release, and blockage of its uptake and its metabolism by MAO. The behavioral manifestation of amphetamine action is a stereotypic pattern of lateral head movements. Counts of lateral head movements were taken over two successive intervals of 1 min each, 45-60 min after the injection of amphetamine and then averaged.
compound,measurement,setting,value
C#CCN(C)[C@H](C)Cc1ccccc1 [deprenyl],"passive avoidance performance, in words",[1],showed no improvement
same,"Locomotor activity after α-MpT treatment, recorded as total movements",[2]; hour 1 after α-MpT,88 ± 23%
same,"Locomotor activity after αMpT treatment, recorded as big movements",[2]; hour 1 after α-MpT,61 ± 15%
same,"Locomotor activity after α-MpT treatment, recorded as total movements",[2]; hour 2 after α-MpT,131 ± 30%
same,"Locomotor activity after αMpT treatment, recorded as big movements",[2]; hour 2 after α-MpT,103 ± 22%
same,"Locomotor activity after α-MpT treatment, recorded as total movements",[2]; hour 3 after α-MpT,141 ± 26%
same,"Locomotor activity after αMpT treatment, recorded as big movements",[2]; hour 3 after α-MpT,184 ± 39%
same,"Locomotor activity after α-MpT treatment, recorded as total movements",[2]; hour 4 after α-MpT,191 ± 45%
same,"Locomotor activity after αMpT treatment, recorded as big movements",[2]; hour 4 after α-MpT,85 ± 34%
same,"Locomotor activity after α-MpT treatment, recorded as total movements",[2]; hour 5 after α-MpT,229 ± 40%
same,"Locomotor activity after αMpT treatment, recorded as big movements",[2]; hour 5 after α-MpT,171 ± 61%
same,"Locomotor activity after αMpT treatment, recorded as big movements",[2]; hour 6 after α-MpT,65 ± 17%
same,"Locomotor activity after α-MpT treatment, recorded as total movements",[2]; hour 7 after α-MpT,204 ± 7%
same,"Locomotor activity after αMpT treatment, recorded as big movements",[2]; hour 7 after α-MpT,96 ± 29%
same,"Locomotor activity after α-MpT treatment, recorded as total movements",[2]; hour 8 after α-MpT,131 ± 23%
same,"Locomotor activity after αMpT treatment, recorded as big movements",[2]; hour 8 after α-MpT,91 ± 40%
same,"Locomotor activity after α-MpT treatment, recorded as total movements",[2]; hour 9 after α-MpT,137 ± 21%
same,"Locomotor activity after αMpT treatment, recorded as big movements",[2]; hour 9 after α-MpT,84 ± 23%
same,"Locomotor activity after α-MpT treatment, recorded as total movements",[2]; hour 10 after α-MpT,116 ± 22%
same,"Locomotor activity after αMpT treatment, recorded as big movements",[2]; hour 10 after α-MpT,29 ± 10%
same,"effect on hypokinetic syndrome, big movements, in words","[2]; hypoxia group, ten hour observation",less effective
same,"level of activity (total movements) versus corresponding control group, in words",[2]; hypoxic rats pretreated,much higher
same,"Locomotor activity after α-MpT treatment, recorded as total movements",[3]; hour 1 after α-MpT 70 mg/Kg,68 ± 9%
same,"Locomotor activity after α-MpT treatment, recorded as big movements",[3]; hour 1 after α-MpT 70 mg/Kg,70 ± 10%
same,"Locomotor activity after α-MpT treatment, recorded as total movements",[3]; hour 2 after α-MpT 70 mg/Kg,95 ± 11%
same,"Locomotor activity after α-MpT treatment, recorded as big movements",[3]; hour 2 after α-MpT 70 mg/Kg,91 ± 19%
same,"Locomotor activity after α-MpT treatment, recorded as total movements",[3]; hour 3 after α-MpT 70 mg/Kg,126 ± 22%
same,"Locomotor activity after α-MpT treatment, recorded as big movements",[3]; hour 3 after α-MpT 70 mg/Kg,85 ± 19%
same,"Locomotor activity after α-MpT treatment, recorded as total movements",[3]; hour 4 after α-MpT 70 mg/Kg,118 ± 20%
same,"Locomotor activity after α-MpT treatment, recorded as big movements",[3]; hour 4 after α-MpT 70 mg/Kg,88 ± 23%
same,"Locomotor activity after α-MpT treatment, recorded as total movements",[3]; hour 5 after α-MpT 70 mg/Kg,83 ± 24%
same,"Locomotor activity after α-MpT treatment, recorded as big movements",[3]; hour 5 after α-MpT 70 mg/Kg,87 ± 11%
same,"Locomotor activity after α-MpT treatment, recorded as total movements",[3]; hour 6 after α-MpT 70 mg/Kg,78 ± 9%
same,"Locomotor activity after α-MpT treatment, recorded as big movements",[3]; hour 6 after α-MpT 70 mg/Kg,67 ± 8%
same,"Locomotor activity after α-MpT treatment, recorded as total movements",[3]; hour 7 after α-MpT 70 mg/Kg,56 ± 7%
same,"Locomotor activity after α-MpT treatment, recorded as big movements",[3]; hour 7 after α-MpT 70 mg/Kg,62 ± 9%
same,"Locomotor activity after α-MpT treatment, recorded as total movements",[3]; hour 8 after α-MpT 70 mg/Kg,185 ± 13%
same,"Locomotor activity after α-MpT treatment, recorded as big movements",[3]; hour 8 after α-MpT 70 mg/Kg,70 ± 9%
same,"Locomotor activity after α-MpT treatment, recorded as total movements",[3]; hour 9 after α-MpT 70 mg/Kg,111 ± 12%
same,"Locomotor activity after α-MpT treatment, recorded as big movements",[3]; hour 9 after α-MpT 70 mg/Kg,132 ± 24%
same,"Locomotor activity after α-MpT treatment, recorded as total movements",[3]; hour 10 after α-MpT 70 mg/Kg,61 ± 12%
same,"Locomotor activity after α-MpT treatment, recorded as big movements",[3]; hour 10 after α-MpT 70 mg/Kg,54 ± 13%
same,"latency to locate platform, Session I Run 1",[4],42 ± 16 s
same,"latency to locate platform, Session I Run 2",[4],40 ± 17 s
same,"latency to locate platform, Session II Run 1",[4],42 ± 18 s
same,"latency to locate platform, Session II Run 2",[4],35 ± 16 s
same,"latency to locate platform, Session III Run 1",[4],32 ± 15 s
same,"latency to locate platform, Session III Run 2",[4],8 ± 2 s
same,"latency to locate platform, Session IV Run 1",[4],19 ± 6 s
same,"latency to locate platform, Session IV Run 2",[4],12 ± 4 s
same,"potentiation of stereotypic behavior induced by amphetamine, in words",[5],did not potentiate
